Structures can show the parent of a compound that is named as a salt. Where two headings read alike, the source gives them in different places.
Key:
HL60 cells [1] = test: Differentiation of HL60 cells (Dif50); type: cell-based, human; details: Homo sapiens, HL-60, HL-60 cells, differentiation; no unit in head or cell (other cells of the column print uM); read-out: HL-60, Dif50
From the text: The tested compounds and their respective results are produced in Table 1. Those skilled in the art will appreciate that combining the securinine and/or norsecurinine analogs with other differentiation inducing agents, such as all-trans retinoic acid, cytarabine and/or an anthracycline, would be of further benefit. Those skilled in the art will appreciate that inducing differentiation may further reduce oxidative damage due to lower presence of radical inducing enzymes (see, e.g., Yamada et al. J Biol Chem 259(5)3021-3025 (1984) and Weil et al., PNAS 84:2057-2061 (1987)).
(§1) The analogs were then tested and evaluated on the ability to affect differentiation and growth of HL60 cells.

HL60 cells [2] = test: Growth of HL60 cells (IC50); type: cell-based, human
Description: as §1

[3] = Homo sapiens, HL-60, HL-60 cells, growth, no unit in head or cell (other cells of the column print uM), read-out: HL-60, IC50
[4] = Homo sapiens, HL-60, read-out: HL-60, IC50, HL-60 cells, growth, no unit in head or cell (other cells of the column print uM)
[5] = Homo sapiens, HL-60, read-out: HL-60, IC50, HL-60 cells, growth

Row | Compound | IC50 (HL60 cells [2]; [3]) | other results
1 | OC1C=C2CC(SCc3ccccc3)[C@@H]3C[C@@]2(O1)[C@H]1CCCCN31 (stereo partly shown) [Sec-2] |  | EC50 (HL60 cells [1]): > 30 µM
2 | O=C1C=C2C(C#Cc3ccc[n+]([O-])c3)=CC3CC2(O1)C1CCCCN31 (stereo not shown) [INV-SZ-113-2] | 0.15 to 0.31 µM | 
3 | O=C1C=C2C[C@H](NCCc3cc4ccccc4[nH]3)[C@@H]3C[C@@]2(O1)[C@H]1CCCCN31 [INVS-MG-98B] |  | EC50 (HL60 cells [1]): 10 to 15 µM
4 | CNCC#CC1=CC2CC3(OC(=O)C=C13)C1CCCCN21 (stereo not shown) [INV-SZ-129-1] | 2.5 to 5 µM | 
5 | O=C1C=C2C(C#Cc3ccc(CO)cc3)=CC3CC2(O1)C1CCCCN31 (stereo not shown) [INV-SZ-120-1] | 0.07 to 0.15 µM | 
6 | COC(OC)C1CCC2N1C1C=C(C#Cc3ccc[n+]([O-])c3)C3=CC(=O)OC32C1 (stereo not shown) [INV-SZ-115-1] | 0.15 to 0.31 µM | 
7 | COc1cc(C#CC2=C[C@@H]3C[C@@]4(OC(=O)C=C24)[C@H]2CC[C@H](C(OC)OC)N32)cc(OC)c1 [INVS-MG-222B] | < 0.03 µM | 
8 | COC(OC)C1CCC2N1C1C=C(C#Cc3ccc(N(C)C)cc3)C3=CC(=O)OC32C1 (stereo not shown) [INV-SZ-117-3] | 0.03 to 0.07 µM | 
9 | COc1ccc(SC2CC3=CC(O)O[C@@]34C[C@@H]2N2CCCC[C@@H]24)cc1 (stereo partly shown) [Sec-9] |  | EC50 (HL60 cells [1]): 20 to 30 µM
10 | O=C1C=C2C=CC3CC2(O1)C1CCCCN1O3 (stereo not shown) [INV-SZ-125-2] | < 5 µM | 
11 | NC1CC2=CC(=O)O[C@@]23C[C@@H]1N1CCCC[C@@H]13 (stereo partly shown) [INVS-MG-97-IIE] |  | EC50 (HL60 cells [1]): 20 to 30 µM
12 | O=C1C=C2CC(SC3CCCCC3)[C@@H]3C[C@@]2(O1)[C@H]1CCCCN31 (stereo partly shown) [INVS-MG-3B] |  | EC50 (HL60 cells [1]): 15 to 20 µM
13 | OC1CC2CC[C@@H]3C[C@@]2(O1)[C@H]1CCCCN31 (stereo partly shown) [Sec-16] |  | EC50 (HL60 cells [1]): 20 to 30 µM
14 | O=C1C=C2CC(N3CCN(c4ccc(Br)cc4)CC3)[C@@H]3C[C@@]2(O1)[C@H]1CCCCN31 (stereo partly shown) [Sec-11] |  | EC50 (HL60 cells [1]): 15 to 20 µM
15 | O=C1C=C2C(I)=CC3CC2(O1)C1CCC(CO)N31 (stereo not shown) [INV-SZ-140-1] | 0.07 to 0.15 µM | 
16 | COC(OC)[C@H]1CC[C@H]2N1[C@@H]1C=C(I)C3=CC(=O)O[C@@]32C1 [INVS-MG-99-IVB-I] |  | IC50 (HL60 cells [2]; [4]): 0.31 to 0.625 µM
17 | O=C1C=C2C(C#Cc3cccnc3)=C[C@@H]3C[C@@]2(O1)[C@H]1CCCCN31 [INVS-MG-144B] | 0.31 to 0.625 µM | 

Row | Compound | IC50 (HL60 cells [2]; [3]) | other results
18 | O=C1C=C2C(C#Cc3ccc(-c4ccccc4)cc3)=C[C@@H]3C[C@@]2(O1)[C@H]1CCCCN31 [INVS-MG-169-III] | 0.07 to 0.156 µM | 
19 | CCN(CC)CC#CC1=C[C@@H]2C[C@@]3(OC(=O)C=C13)[C@H]1CCCCN21 [INVS-MG-145-V] |  | IC50 (HL60 cells [2]; [4]): 0.07 to 0.156 µM
20 | OC1C=C2CC(SC3CCCC3)[C@@H]3C[C@@]2(O1)[C@H]1CCCCN31 (stereo partly shown) [Sec-6] |  | EC50 (HL60 cells [1]): 15 to 20 µM
21 | COC(OC)[C@H]1CC[C@H]2N1[C@@H]1C=CC3=CC(=O)O[C@@]32C1 [INVS-MG-99-IVD] |  | IC50 (HL60 cells [2]; [5]): < 5 µM
22 | COc1cccc(C#CC2=C[C@@H]3C[C@@]4(OC(=O)C=C24)[C@H]2CC[C@H](C(OC)OC)N32)c1 [INVS-MG-221B] | 0.625 to 1.25 µM | 
23 | O=C1C=C2C(I)=C[C@@H]3C[C@@]2(O1)[C@H]1CCCCN31 [INVS-MG-82 = 12A HCl salt] |  | IC50 (HL60 cells [2]; read-out: HL-60, IC50, HL-60 cells, growth, no unit in head or cell (other cells of the column print uM)): > 2.5 µM
24 | COC(OC)[C@H]1CC[C@H]2N1[C@@H]1C=C(I)C3=CC(=O)O[C@@]32C1 [INVS-MG-99B = 52B] |  | IC50 (HL60 cells [2]; [4]): 0.156 to 0.31 µM
25 | O=C1C=C2C(C#CCSc3ccccc3)=C[C@@H]3C[C@@]2(O1)[C@H]1CCCCN31 [INVS-MG-147B] | 0.625 to 1.25 µM | 
26 | O=C1C=C2C(/C=C(\C#Cc3cc(C(F)(F)F)cc(C(F)(F)F)c3)c3cc(C(F)(F)F)cc(C(F)(F)F)c3)=C[C@@H]3C[C@@]2(O1)[C@H]1CCCCN31 [INVS-MG-149B] | 1.25 to 2.5 µM | 
27 | COC(OC)[C@H]1CC[C@H]2N1[C@@H]1C=C(C#Cc3ccc(N)cc3)C3=CC(=O)O[C@@]32C1 [INVS-MG-219A] | 0.625 to 1.25 µM | 
28 | CC(C)CS[C@@H]1CC2=CC(=O)O[C@@]23C[C@@H]1N1CCCC[C@@H]13 (stereo in doubt) [INVS-MG-57A] |  | EC50 (HL60 cells [1]): 20 to 30 µM
29 | CN(C)c1ccc(C#CC2=C[C@@H]3C[C@@]4(OC(=O)C=C24)[C@H]2CCCCN32)cc1 [INVS-MG-146-IV] |  | IC50 (HL60 cells [2]; [4]): 0.07 to 0.156 µM
30 | CC(C)CS[C@H]1CC2=CC(=O)O[C@@]23C[C@@H]1N1CCCC[C@@H]13 (stereo in doubt) [INVS-MG-55B & 57B = 37B] |  | EC50 (HL60 cells [1]): 15 to 20 µM
31 | O=CC1CCC2N1C1C=CC3=CC(=O)OC32C1 (stereo not shown) [INV-SZ-132-1] | 1.25 to 2.5 µM | 
32 | CCCCN(CC#CC1=C[C@@H]2C[C@@]3(OC(=O)C=C13)[C@H]1CCCCN21)CCCC [INVS-MG-179B] | 0.156 to 0.31 µM | 
33 | COC(OC)C1CCC2N1C1C=C(C#CCNC(=O)CCl)C3=CC(=O)OC32C1 (stereo not shown) [INV-SZ-141-1] | 1.25 to 2.5 µM | 
34 | COC(OC)[C@@H]1CC[C@H]2N1[C@@H]1C=C(C#Cc3cc4ccccc4c4ccccc34)C3=CC(=O)O[C@@]32C1 [INVS-MG-220C] |  | IC50 (HL60 cells [2]; [5]): > 5 µM

Reference: US9827229B2, “Small molecule securinine and norsecurinine analogs and their use in cancers, inflammatory diseases and infections” (INVENIO THERAPEUTICS INC., priority 2013, dated 2017)
